Target: T1, Nfo (AP endonuclease Nfo, endonuclease IV) (Escherichia coli, UniProt P0A6C1)
T1 construct: full-length from pET-11a with nfo gene, expressed in E. coli BL21(DE3); 30 kDa, 3 Zn2+ in active site; the PDB entries are earlier structures of Nfo-DNA complexes
Assay: stopped-flow 2-aminopurine fluorescence, inhibition of […]'-5' exonuclease
Type: biochemical

IC50 | Structure (SMILES)
4.4 ± 0.5 mM | Cc1cn([C@H]2C[C@H](O)[C@@H](COP(=O)(O)O)O2)c(=O)[nH]c1=O [thymidine monophosphate]
3.2 ± 0.4 mM | Nc1nc2c(ncn2[C@H]2C[C@H](O)[C@@H](COP(=O)(O)O)O2)c(=O)[nH]1 [2′-deoxyguanosine monophosphate]
